From ChEMBL document CHEMBL5143746, “SJPYT-195: A Designed Nuclear Receptor Degrader That Functions as a Molecular Glue Degrader of GSPT1” (ACS Med Chem Lett, 2022)
The source made the active and inactive calls. The calls are words filed in the database; no cut-off is given here.

Legend:
[1] = biological target: Protein cereblon/DNA damage-binding protein 1 (Homo sapiens, UniProt Q96SW2); experiment: Displacement of BODIPY FL thalidomide from 6His-tagged CRBN/DDB1 (unknown origin) expressed in baculovirus infected Sf9 insect cells incubated for 1 min under shaking condition followed by 60 mins incubation under dark condition by TR-FRET assay
SNU-C4 [2] = experiment: Cytotoxicity against PXR knock in human SNU-C4 cells measured after 72 hrs by celltiter-glo assay; type: functional
[3] = biological target: T1, Nuclear receptor subfamily 1 group I member 2 (Homo sapiens, UniProt O75469); experiment: Induction of PXR degradation in PXR knock in human SNU-C4 cells at 0.0001 to 1 uM measured after 24 hrs by Western blot analysis; type: cell-based; details: snu-c4, 24 h, dose 0.0001-1 µM
T1 sequence (O75469 whole entry): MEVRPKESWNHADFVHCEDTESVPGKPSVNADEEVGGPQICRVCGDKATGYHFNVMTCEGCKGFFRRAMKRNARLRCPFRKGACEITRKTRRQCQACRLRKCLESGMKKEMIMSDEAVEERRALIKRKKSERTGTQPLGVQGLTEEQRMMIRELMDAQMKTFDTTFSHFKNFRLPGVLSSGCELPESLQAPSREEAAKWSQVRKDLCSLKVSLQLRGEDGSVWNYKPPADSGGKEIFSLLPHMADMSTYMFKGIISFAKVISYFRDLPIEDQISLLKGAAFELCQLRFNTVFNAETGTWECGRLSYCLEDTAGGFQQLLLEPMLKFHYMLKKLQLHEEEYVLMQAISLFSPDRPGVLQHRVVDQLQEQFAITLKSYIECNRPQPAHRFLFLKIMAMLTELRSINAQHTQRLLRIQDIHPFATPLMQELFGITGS

SNU-C4 [4] = experiment: […] of GSPT1 expression in PXR knock in human SNU-C4 cells at 5 uM measured after 12 hrs by TMT-MS analysis; type: functional, cell-based
[5] = biological target: Eukaryotic peptide chain release factor GTP-binding subunit ERF3A (Homo sapiens) (UniProt P15170); experiment: Induction of GSPT1 degradation in PXR knock in human SNU-C4 cells at 0.001 to 10 uM measured after 24 hrs by Western blot analysis; type: cell-based; details: dose 0.001-10 µM
SNU-C4 [6] = experiment: Down regulation of PXR mRNA expression in PXR knock in human SNU-C4 cells at 10 uM measured after 2 to 48 hrs by RT-qPCR analysis; type: functional, cell-based; details: time 2-48 hrs
SNU-C4 [7] = experiment: Down regulation of FOS expression in PXR knock in human SNU-C4 cells at 5 uM measured after 12 hrs by TMT-MS analysis; type: functional, cell-based
SNU-C4 [8] = experiment: […] of ZFP91 expression in PXR knock in human SNU-C4 cells at 5 uM measured after 12 hrs by TMT-MS analysis; type: functional, cell-based
SNU-C4 [9] = experiment: […] of GSPT2 expression in PXR knock in human SNU-C4 cells at 5 uM measured after 12 hrs by TMT-MS analysis; type: functional, cell-based
SNU-C4 [10] = experiment: Up regulation of CYP1A1 expression in PXR knock in human SNU-C4 cells at 5 uM measured after 12 hrs by TMT-MS analysis; type: functional, cell-based
SNU-C4 [11] = experiment: Up regulation of BRIP1 expression in PXR knock in human SNU-C4 cells at 5 uM measured after 12 hrs by TMT-MS analysis; type: functional, cell-based
[12] = biological target: T1, Nuclear receptor subfamily 1 group I member 2; experiment: Induction of PXR degradation in PXR knock in human SNU-C4 cells at 10 uM measured after 2 to 48 hrs by Western blot analysis; type: cell-based; details: snu-c4, 10 µM, time 2-48 hrs
[13] = biological target: T2, Protein cereblon/Peptidyl-prolyl cis-trans isomerase FKBP1A/Nuclear receptor subfamily 1 group I member 2 (Homo sapiens, UniProt P62942+O75469+Q96SW2, F37V); experiment: Molecular glue activity at HA-tagged CLR4-CRBN/2HA-tagged PXR fused HiBiT-tagged FKBP12 (F36V) mutant (unknown origin) expressed in HepG2 cells assessed as induction of PXR degradation measured after 24 hrs by Nano-Glo HiBiT assay; type: cell-based; details: hepg2, 24 h
[14] = biological target: T1, Nuclear receptor subfamily 1 group I member 2; experiment: Induction of PXR degradation in PXR knock in human SNU-C4 cells at 5 uM measured after 12 hrs by Western blot analysis relative to control; type: cell-based; details: snu-c4, 12 h
HepG2 [15] = experiment: Binding affinity to 2HA-tagged PXR fused HiBiT-tagged FKBP12 (F36V) mutant (unknown origin) expressed in HepG2 cells assessed as change in FKBP-PXR expression at 0.0001 uM measured after 24 hrs by Western blot analysis relative to control; type: cell-based; details: Homo sapiens
[16] = biological target: T2, Protein cereblon/Peptidyl-prolyl cis-trans isomerase FKBP1A/Nuclear receptor subfamily 1 group I member 2; experiment: (§1) Molecular glue activity at HA-tagged […]/2HA-tagged PXR fused HiBiT-tagged FKBP12 (F36V) mutant (unknown origin) expressed in HepG2 cells assessed as induction of PXR degradation by measuring change in FKBP-PXR expression at 0.1 uM measured after 24 hrs by Western blot analysis relative to control; type: cell-based; details: hepg2, 24 h
[17] = biological target: T2, Protein cereblon/Peptidyl-prolyl cis-trans isomerase FKBP1A/Nuclear receptor subfamily 1 group I member 2; experiment: as §1, with “CRBN” for “FKBP-PXR”, “0.0001” for “0.1”; type: cell-based; details: hepg2, 24 h
HepG2 [18] = experiment: Binding affinity to 2HA-tagged PXR fused HiBiT-tagged FKBP12 (F36V) mutant (unknown origin) expressed in HepG2 cells assessed as change in FKBP-PXR expression at 10 uM measured after 24 hrs by Western blot analysis relative to control; type: cell-based; details: Homo sapiens
[19] = biological target: T2, Protein cereblon/Peptidyl-prolyl cis-trans isomerase FKBP1A/Nuclear receptor subfamily 1 group I member 2; experiment: (§2) Molecular glue activity at HA-tagged […]/2HA-tagged PXR fused HiBiT-tagged FKBP12 (F36V) mutant (unknown origin) expressed in HepG2 cells assessed as induction of PXR degradation by measuring change in CRBN expression at 1 uM measured after 24 hrs by Western blot analysis relative to control; type: cell-based; details: hepg2, 24 h
[20] = biological target: T2, Protein cereblon/Peptidyl-prolyl cis-trans isomerase FKBP1A/Nuclear receptor subfamily 1 group I member 2; experiment: as §1, with “0.01” for “0.1”; type: cell-based; details: hepg2, 24 h
HepG2 [21] = experiment: Binding affinity to 2HA-tagged PXR fused HiBiT-tagged FKBP12 (F36V) mutant (unknown origin) expressed in HepG2 cells assessed as change in FKBP-PXR expression at 0.01 uM measured after 24 hrs by Western blot analysis relative to control; type: cell-based; details: Homo sapiens
[22] = biological target: T2, Protein cereblon/Peptidyl-prolyl cis-trans isomerase FKBP1A/Nuclear receptor subfamily 1 group I member 2; experiment: as §2, with “at 0.01” for “at 1”; type: cell-based; details: hepg2, 24 h
[23] = biological target: T2, Protein cereblon/Peptidyl-prolyl cis-trans isomerase FKBP1A/Nuclear receptor subfamily 1 group I member 2; experiment: Molecular glue activity at HA-tagged […]/2HA-tagged PXR fused HiBiT-tagged FKBP12 (F36V) mutant (unknown origin) expressed in HepG2 cells assessed as induction of PXR degradation by measuring change in CRBN expression at 0.1 uM measured after 24 hrs by Western blot analysis relative to control; type: cell-based; details: hepg2, 24 h
[24] = biological target: T2, Protein cereblon/Peptidyl-prolyl cis-trans isomerase FKBP1A/Nuclear receptor subfamily 1 group I member 2; experiment: as §1, with “0.001” for “0.1”; type: cell-based; details: hepg2, 24 h
HepG2 [25] = experiment: Binding affinity to 2HA-tagged PXR fused HiBiT-tagged FKBP12 (F36V) mutant (unknown origin) expressed in HepG2 cells assessed as change in FKBP-PXR expression at 0.001 uM measured after 24 hrs by Western blot analysis relative to control; type: cell-based; details: Homo sapiens
[26] = biological target: T2, Protein cereblon/Peptidyl-prolyl cis-trans isomerase FKBP1A/Nuclear receptor subfamily 1 group I member 2; experiment: as §2, with “at 0.001” for “at 1”; type: cell-based; details: hepg2, 24 h
HepG2 [27] = experiment: Binding affinity to 2HA-tagged PXR fused HiBiT-tagged FKBP12 (F36V) mutant (unknown origin) expressed in HepG2 cells assessed as change in FKBP-PXR expression at 0.1 uM measured after 24 hrs by Western blot analysis relative to control; type: cell-based; details: Homo sapiens
[28] = biological target: T2, Protein cereblon/Peptidyl-prolyl cis-trans isomerase FKBP1A/Nuclear receptor subfamily 1 group I member 2; experiment: as §1, with “0.0001” for “0.1”; type: cell-based; details: hepg2, 24 h
[29] = biological target: T2, Protein cereblon/Peptidyl-prolyl cis-trans isomerase FKBP1A/Nuclear receptor subfamily 1 group I member 2; experiment: as §1, with “1” for “0.1”; type: cell-based; details: hepg2, 24 h
HepG2 [30] = experiment: Binding affinity to 2HA-tagged PXR fused HiBiT-tagged FKBP12 (F36V) mutant (unknown origin) expressed in HepG2 cells assessed as change in FKBP-PXR expression at 1 uM measured after 24 hrs by Western blot analysis relative to control; type: cell-based; details: Homo sapiens
[31] = biological target: T2, Protein cereblon/Peptidyl-prolyl cis-trans isomerase FKBP1A/Nuclear receptor subfamily 1 group I member 2; experiment: as §1, with “10” for “0.1”; type: cell-based; details: hepg2, 24 h
[32] = biological target: T2, Protein cereblon/Peptidyl-prolyl cis-trans isomerase FKBP1A/Nuclear receptor subfamily 1 group I member 2; experiment: Molecular glue activity at HA-tagged […]/2HA-tagged PXR fused HiBiT-tagged FKBP12 (F36V) mutant (unknown origin) expressed in HepG2 cells assessed as induction of PXR degradation by measuring change in CRBN expression at 10 uM measured after 24 hrs by Western blot analysis relative to control; type: cell-based; details: hepg2, 24 h

T2 sequence (P62942 2-108 F37V limits assumed, stated change not applied, one chain of several): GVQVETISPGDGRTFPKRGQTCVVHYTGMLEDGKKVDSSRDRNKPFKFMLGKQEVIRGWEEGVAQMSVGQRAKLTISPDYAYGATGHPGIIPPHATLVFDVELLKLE
T2 sequence (Q96SW2 whole entry, stated change not applied, one chain of several, the tested form may be a part): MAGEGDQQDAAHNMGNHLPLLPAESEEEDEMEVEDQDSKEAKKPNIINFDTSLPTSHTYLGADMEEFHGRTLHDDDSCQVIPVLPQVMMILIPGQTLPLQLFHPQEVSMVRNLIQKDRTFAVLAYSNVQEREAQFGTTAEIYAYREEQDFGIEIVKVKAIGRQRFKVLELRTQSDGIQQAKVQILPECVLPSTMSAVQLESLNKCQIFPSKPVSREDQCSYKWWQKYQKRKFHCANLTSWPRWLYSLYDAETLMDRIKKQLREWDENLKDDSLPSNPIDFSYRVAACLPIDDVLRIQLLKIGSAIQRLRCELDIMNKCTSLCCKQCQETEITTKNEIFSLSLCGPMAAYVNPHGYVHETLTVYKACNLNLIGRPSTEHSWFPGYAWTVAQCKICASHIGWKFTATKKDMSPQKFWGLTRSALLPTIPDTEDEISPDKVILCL
Protein cereblon/DNA damage-binding protein 1, sequence (Q96SW2 whole entry): as the sequence (Q96SW2 whole entry, stated change not applied, one chain of several, the tested form may be a part) above
Protein cereblon/DNA damage-binding protein 1, sequence (Q16531 whole entry, further chain): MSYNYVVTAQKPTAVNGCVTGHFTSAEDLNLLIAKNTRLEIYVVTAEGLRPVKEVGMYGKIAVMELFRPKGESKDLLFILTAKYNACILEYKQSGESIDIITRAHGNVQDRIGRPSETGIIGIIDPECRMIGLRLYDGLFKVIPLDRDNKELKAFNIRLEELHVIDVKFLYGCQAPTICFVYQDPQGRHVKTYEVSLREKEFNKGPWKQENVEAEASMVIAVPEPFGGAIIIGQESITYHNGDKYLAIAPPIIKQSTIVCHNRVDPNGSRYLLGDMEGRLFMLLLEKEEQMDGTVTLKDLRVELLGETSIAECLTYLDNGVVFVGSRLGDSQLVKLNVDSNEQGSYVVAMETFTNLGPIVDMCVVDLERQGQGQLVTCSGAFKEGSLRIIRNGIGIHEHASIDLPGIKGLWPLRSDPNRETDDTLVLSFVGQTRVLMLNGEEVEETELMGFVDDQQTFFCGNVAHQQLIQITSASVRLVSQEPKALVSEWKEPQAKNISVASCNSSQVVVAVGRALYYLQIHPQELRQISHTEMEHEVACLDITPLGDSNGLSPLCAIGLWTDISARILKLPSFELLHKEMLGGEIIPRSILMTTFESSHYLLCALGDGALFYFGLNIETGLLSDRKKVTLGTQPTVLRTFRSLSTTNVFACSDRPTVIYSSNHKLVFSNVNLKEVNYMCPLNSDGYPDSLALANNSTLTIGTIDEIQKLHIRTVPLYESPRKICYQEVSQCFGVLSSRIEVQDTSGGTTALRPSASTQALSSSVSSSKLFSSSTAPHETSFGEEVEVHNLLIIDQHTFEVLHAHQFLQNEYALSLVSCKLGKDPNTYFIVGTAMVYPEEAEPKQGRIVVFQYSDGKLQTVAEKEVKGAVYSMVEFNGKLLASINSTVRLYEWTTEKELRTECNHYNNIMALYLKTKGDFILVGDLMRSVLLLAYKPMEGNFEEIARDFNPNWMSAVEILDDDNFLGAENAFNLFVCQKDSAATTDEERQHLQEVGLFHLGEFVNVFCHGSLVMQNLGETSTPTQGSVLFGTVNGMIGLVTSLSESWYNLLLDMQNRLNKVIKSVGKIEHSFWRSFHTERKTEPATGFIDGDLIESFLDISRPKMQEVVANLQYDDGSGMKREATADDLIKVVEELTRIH
Eukaryotic peptide chain release factor GTP-binding subunit ERF3A (Homo sapiens), sequence (P15170 whole entry): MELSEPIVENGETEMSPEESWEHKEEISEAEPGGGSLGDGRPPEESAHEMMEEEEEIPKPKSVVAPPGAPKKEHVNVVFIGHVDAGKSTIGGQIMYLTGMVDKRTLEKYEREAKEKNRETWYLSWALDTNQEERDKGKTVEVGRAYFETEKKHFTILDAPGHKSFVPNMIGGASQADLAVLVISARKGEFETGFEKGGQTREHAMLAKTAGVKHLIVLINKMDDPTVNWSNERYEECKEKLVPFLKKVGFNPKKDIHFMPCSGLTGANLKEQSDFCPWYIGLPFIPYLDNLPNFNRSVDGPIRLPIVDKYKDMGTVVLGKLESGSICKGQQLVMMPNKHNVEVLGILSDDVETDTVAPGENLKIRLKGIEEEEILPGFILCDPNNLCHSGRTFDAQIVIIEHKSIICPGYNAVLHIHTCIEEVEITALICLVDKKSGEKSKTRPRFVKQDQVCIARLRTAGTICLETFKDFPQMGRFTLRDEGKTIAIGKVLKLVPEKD

Structure (SMILES): COc1ccc(OC)c(-n2nnc(C(=O)Nc3cc(NCCNc4cccc5c4C(=O)N(C4CCC(=O)NC4=O)C5=O)cc(C(C)(C)C)c3)c2C)c1 (centres undefined)
- EC50 [1]: 24 nM

Structure (SMILES): COc1ccc(OC)c(-n2nnc(C(=O)Nc3cc(OCCNc4cccc5c4C(=O)N(C4CCC(=O)NC4=O)C5=O)cc(C(C)(C)C)c3)c2C)c1 (centres undefined)
- EC50 [1]: 23 nM

Structure (SMILES): Cc1ccc(NC(=O)NCc2ccc3c(c2)CN(C2CCC(=O)NC2=O)C3=O)cc1Cl (centres undefined)
- CC50 (SNU-C4 [2]): 440 nM
- Activity [3]: Active

Structure (SMILES): CC(=O)Nc1cc(Oc2cccc3c2C(=O)N(C2CCC(=O)NC2=O)C3=O)cc(C(C)(C)C)c1 (centres undefined)
- EC50 [1]: 11 nM

Structure (SMILES): COc1ccc(OC)c(-n2nnc(C(=O)Nc3cc(Oc4cccc5c4C(=O)N(C4CCC(=O)NC4=O)C5=O)cc(C(C)(C)C)c3)c2C)c1 (centres undefined)
- Activity (SNU-C4 [4]): Active
- Activity [5]: Active
- Activity (SNU-C4 [6]): Active
- CC50 (SNU-C4 [2]): 3.3 nM
- Activity (SNU-C4 [7]): Active
- Activity (SNU-C4 [8]): Active
- Activity (SNU-C4 [9]): Active
- Activity (SNU-C4 [10]): Active
- Activity (SNU-C4 [11]): Active
- Activity [12]: Active
- Activity ([13]; DDE = dose-dependent effect): Dde
- Activity [14]: 50%
- EC50 [1]: 31 nM

Structure (SMILES): COc1ccc(OC)c(-n2nnc(C(=O)Nc3cc(NC(=O)Nc4cccc5c4C(=O)N(C4CCC(=O)NC4=O)C5=O)cc(C(C)(C)C)c3)c2C)c1 (centres undefined)
- EC50 [1]: 410 nM

Structure (SMILES): COc1ccc(OC)c(-n2nnc(S(=O)(=O)c3ccc(C(C)(C)C)cc3)c2C)c1
- EC50 [1]: > 3000 nM

Structure (SMILES): CC(=O)Nc1cc(Nc2cccc3c2C(=O)N(C2CCC(=O)NC2=O)C3=O)cc(C(C)(C)C)c1 (centres undefined)
- EC50 [1]: 3.2 nM

Structure (SMILES): COc1ccc(OC)c(-n2nnc(C(=O)Nc3cc(NC(=O)CNc4cccc5c4C(=O)N(C4CCC(=O)NC4=O)C5=O)cc(C(C)(C)C)c3)c2C)c1 (centres undefined)
- EC50 [1]: 15 nM

Structure (SMILES): CC[C@H](C(=O)N1CCCC[C@H]1C(=O)O[C@H](CCc1ccc(OC)c(OC)c1)c1ccccc1OCC(=O)NCCCCCCOc1cccc2c1C(=O)N(C1CCC(=O)NC1=O)C2=O)c1cc(OC)c(OC)c(OC)c1 (some centres undefined)
- fold change (FC) (HepG2 [15]): 1.1
- fold change (FC) [16]: 0.5
- fold change (FC) [17]: 0.9
- fold change (FC) (HepG2 [18]): 1
- fold change (FC) [19]: 2.2
- fold change (FC) [20]: 0.5
- fold change (FC) (HepG2 [21]): 1.2
- fold change (FC) [22]: 1.1
- fold change (FC) [23]: 1.3
- fold change (FC) [24]: 0.7
- fold change (FC) (HepG2 [25]): 1.3
- fold change (FC) [26]: 0.9
- fold change (FC) (HepG2 [27]): 1.1
- Activity [13]: Active
- fold change (FC) [28]: 0.8
- fold change (FC) [29]: 0.8
- fold change (FC) (HepG2 [30]): 0.9
- fold change (FC) [31]: 1.4
- fold change (FC) [32]: 3.6

Structure (SMILES): CC(C)(C)c1cc(N)cc(Oc2cccc3c2C(=O)N(C2CCC(=O)NC2=O)C3=O)c1 (centres undefined)
- EC50 [1]: 14 nM

Structure (SMILES): COc1ccc(OC)c(-n2nnc(C(=O)Nc3cc(OC(=O)CNc4cccc5c4C(=O)N(C4CCC(=O)NC4=O)C5=O)cc(C(C)(C)C)c3)c2C)c1 (centres undefined)
- EC50 [1]: 17 nM

Structure (SMILES): COc1ccc(OC)c(-n2nnc(C(=O)Nc3cc(OCC(=O)Nc4cccc5c4C(=O)N(C4CCC(=O)NC4=O)C5=O)cc(C(C)(C)C)c3)c2C)c1 (centres undefined)
- EC50 [1]: > 333 nM
